From PMC7925099, “Identification of an Antiretroviral Small Molecule That Appears To Be a Host-Targeting Inhibitor of HIV-1 Assembly” (Journal of Virology, 2021)
Like-named read-outs stand apart in the source and are kept apart here.

Tests used:
HIV-1 NL4-3 RLuc = test: MT-2 spreading infection assay (inhibition of HIV-1 replication); conditions: for SI (CC50/EC50): from average values
Experimental: Inhibition of HIV-1 viral replication was assayed in a spreading infection using MT-2 cells and NL4-3 RLuc reporter virus. For dose-response curves, compounds were initially diluted with DMSO to 100-fold the starting concentration in a 96-well plate and subjected to a series of 3-fold dilutions in DMSO for a total of eight or nine dilutions. If a single compound concentration was tested, the compound was diluted to 100-fold the desired concentration in DMSO. Compounds were then diluted 50-fold with infection media prepared by diluting NL4-3 RLuc virus stock to 400 IU/100 μl with complete RPMI. Then, 100 μl of 50-fold-diluted compound was transferred to 20,000 MT-2 cells that were preseeded in 96-well plates in 100 μl of complete RPMI for a final volume of 200 μl, followed by incubation at 37°C for 96 h. The final MOI in infected plates was 0.02, and the final DMSO concentration in all wells was 1%. All assays were run with three replicates. For each replicate, one well received DMSO only, and one well received medium only for normalization and background correction. […] Plates were read on a luminescence plate reader (Synergy H1; BioTek Instruments, Inc.).
(§3) EC50 and CC50 values were determined in Excel using four-parameter logistic regression analysis of dose-response data generated from the viral inhibition or cytotoxicity assays, respectively. […] Average EC50 and CC50 values were calculated using the geometric mean and average values were reported with the geometric standard deviation (GSD).

in vitro = conditions: human
Experimental: (§4) For each viral inhibition assay, a cytotoxicity assay was performed in parallel on uninfected cells by adding 1/10 volume of alamarBlue (Thermo Fisher, Waltham, MA; DAL1199) to the plates, followed by thorough mixing. AlamarBlue-treated plates were incubated for 2 to 3 h at 37°C (the timing was optimized for the linear signal), mixed well, and read using a fluorescence plate reader with 560 nm and 590 nm as the excitation and emission settings, respectively (Synergy H1; BioTek Instruments, Inc.).
as §3

DDX6 = target: T1, DDX6 (Homo sapiens, UniProt P26196); test: Biotin-DDX6 proximity ligation assay; assay type: cell-based; conditions: for biotin-DDX6 PLA spots/cell: 16 h
T1 construct: endogenous in cells; host or cells: 293T/17 and 293T-HIV cells
T1 sequence (P26196 1-483): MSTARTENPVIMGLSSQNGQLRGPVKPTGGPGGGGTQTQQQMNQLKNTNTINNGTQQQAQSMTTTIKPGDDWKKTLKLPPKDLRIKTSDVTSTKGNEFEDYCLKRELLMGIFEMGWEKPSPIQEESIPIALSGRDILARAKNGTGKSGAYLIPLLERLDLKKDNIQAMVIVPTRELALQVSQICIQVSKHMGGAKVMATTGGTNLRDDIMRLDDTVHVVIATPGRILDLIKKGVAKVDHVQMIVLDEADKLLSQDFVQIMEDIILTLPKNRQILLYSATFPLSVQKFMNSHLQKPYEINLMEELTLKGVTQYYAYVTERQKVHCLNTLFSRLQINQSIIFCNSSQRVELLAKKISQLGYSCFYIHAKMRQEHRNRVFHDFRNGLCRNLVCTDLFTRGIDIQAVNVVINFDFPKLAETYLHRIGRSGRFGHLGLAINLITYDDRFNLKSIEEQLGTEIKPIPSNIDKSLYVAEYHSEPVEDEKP
Experimental: (§1) For each treatment, one-half of a Grace Biolabs Culture Well silicone chamber (Millipore-Sigma; GBL103380) was attached to a cover glass (Carl Zeiss, Oberkochen, Germany; catalog no. 474030-9000-000) to create four chambers on the cover glass. Each chambered cover glass was placed into a well of a 6-well plate, and the chambers were coated with poly-L-lysine and allowed to dry overnight. The next day, ∼4 × 10^3 293T/17 or 293T-HIV cells were seeded into each chamber, followed by incubation at 37°C for 5 to 6 h. After the cells adhered, they were treated with compound or DMSO. At 16 h posttreatment, the cells were fixed for 15 min in 4% paraformaldehyde in PBS (pH 7.4), permeabilized in 0.5% (wt/vol) saponin in PBS (pH 7.4) for 10 min, and blocked in Duolink blocking solution (Millipore-Sigma) at 37°C for 30 min. The cells were incubated in primary antibodies using the following concentrations: for the Gag-biotin PLA, mouse αGag p24 was used at 0.2 μg/ml, and rabbit αbiotin was used at 4 μg/ml; for the biotin-ABCE1 PLA, rabbit αABCE1 was used at 0.3 μg/ml, and mouse αbiotin was used at 0.7 μg/ml; for the biotin-DDX6 PLA, rabbit αDDX6 was used at 0.5 μg/ml and mouse αbiotin was used at 0.3 μg/ml; for the ABCE1-DDX6 PLA, rabbit αABCE1 was used at 0.3 μg/ml, and mouse αDDX6 was used at 0.3 μg/ml; for the biotin-G3BP1 PLA, rabbit αG3BP1 was used at 0.025 μg/ml, and mouse αbiotin was used at 0.2 μg/ml; for the TIAR-G3BP1 PLA, rabbit αG3BP1 was used at 0.025 μg/ml, and mouse αTIAR was used at 0.025 μg/ml; for the biotin-XRN1 PLA, rabbit α XRN1 was used at 0.5 μg/ml, and mouse αbiotin was used at 0.2 μg/ml; and for the DDX6-XRN1 PLA, rabbit αXRN1 was used at 0.5 μg/ml, and mouse αDDX6 was used at 0.5 μg/ml. For the NI control PLA experiments, NI control antibodies from the relevant species were used at the same concentration as the primary antibody they replaced. Primary incubation was followed by incubation with Duolink reagents (Millipore-Sigma): oligonucleotide-linked secondary antibody, ligation mix, and red amplification/detection mix, with washes in between, in accordance with the Duolink protocol. For concurrent IF analysis following the final 1× PLA buffer B washes, cells were incubated for 30 min at room temperature with 1:1,000 Alexa Fluor 488-anti-mouse secondary antibody. Cover glasses were mounted using Duolink in situ mounting medium with DAPI (4′,6′-diamidino-2-phenylindole; Millipore-Sigma), sealed to the glass slides with clear nail polish, allowed to dry for 24 h at room temperature, and stored at −20°C. Imaging was performed with a Zeiss Axio Observer.Z1/7 deconvolution microscope using Zeiss Plan-Apochromat 63×/aperture 1.4 objective with oil immersion, with Zen 2.6 (blue edition) software. For quantification, 5 to 10 fields, each containing at least three IF-positive cells, were chosen at random and imaged using identical exposure times for each channel (100 to 150 ms for the PLA channel in red; 0.5 to 1 s for the IF channel in green, depending on the IF primary antibody; and 20 ms for the DAPI channel in blue). Images were captured as a Z-stack of 80 to 90 0.24-μm slices that included the entire cell body and 5 μm above and below the cell (∼20 μm total). To determine the number of PLA spots per cell, image stacks were processed as follows in Fiji ([96]). First, an in-focus slice from the IF channel was selected using the Find Focused Slices plugin within ImageJ (Q. Tseng, 2020 [https://sites.google.com/site/qingzongtseng/find-focus]), and thresholding was used to generate regions of interest (ROI) that contained only cells. The ROIs identified in the IF channel were applied to a maximum intensity z projection of the PLA channel, and PLA spots within the ROI were counted using the find maxima function in Fiji, with noise threshold optimized to identify only PLA spots. Nuclei from each field were counted manually to determine the number of cells. […]

G3BP1 = target: T2, G3BP1 (Homo sapiens, UniProt Q13283); test: Biotin-G3BP1 proximity ligation assay; assay type: cell-based; conditions: 293T-HIV; for PLA spots/cell (biotin-G3BP1 PLA): 10 μM, 16 h
T2 construct: endogenous in cells; host or cells: 293T-HIV cells
Experimental: (§2) For each treatment, one-half of a Grace Biolabs Culture Well silicone chamber (Millipore-Sigma; GBL103380) was attached to a cover glass (Carl Zeiss, Oberkochen, Germany; catalog no. 474030-9000-000) to create four chambers on the cover glass. Each chambered cover glass was placed into a well of a 6-well plate, and the chambers were coated with poly-L-lysine and allowed to dry overnight. The next day, ∼4 × 10^3 293T/17 or 293T-HIV cells were seeded into each chamber, followed by incubation at 37°C for 5 to 6 h. After the cells adhered, they were treated with compound or DMSO. At 16 h posttreatment, the cells were fixed for 15 min in 4% paraformaldehyde in PBS (pH 7.4), permeabilized in 0.5% (wt/vol) saponin in PBS (pH 7.4) for 10 min, and blocked in Duolink blocking solution (Millipore-Sigma) at 37°C for 30 min. […] For quantification, 5 to 10 fields, each containing at least three IF-positive cells, were chosen at random and imaged using identical exposure times for each channel (100 to 150 ms for the PLA channel in red; 0.5 to 1 s for the IF channel in green, depending on the IF primary antibody; and 20 ms for the DAPI channel in blue). […] The ROIs identified in the IF channel were applied to a maximum intensity z projection of the PLA channel, and PLA spots within the ROI were counted using the find maxima function in Fiji, with noise threshold optimized to identify only PLA spots. Nuclei from each field were counted manually to determine the number of cells. […]

ABCE1 = target: T3, ABCE1 (Homo sapiens, UniProt P61221); test: Biotin-ABCE1 proximity ligation assay; assay type: cell-based; conditions: for biotin-ABCE1 PLA spots/cell: 16 h
T3 construct: endogenous in cells; host or cells: 293T/17 and 293T-HIV cells
Experimental: as §1

HIV-1 Gag = test: Biotin-Gag proximity ligation assay; assay type: cell-based; conditions: for biotin-Gag PLA spots/cell: 16 h
Experimental: as §1

XRN1 = target: T4, XRN1 (Homo sapiens, UniProt Q8IZH2); test: Biotin-XRN1 proximity ligation assay; assay type: cell-based; conditions: 293T-HIV; for PLA spots/cell (biotin-XRN1 PLA): 10 μM, 16 h
T4 construct: endogenous in cells; host or cells: 293T-HIV cells
Experimental: as §2

TIAR and G3BP1 = test: TIAR-G3BP1 proximity ligation assay in compound-treated cells; assay type: cell-based, human; conditions: 10 μM; 16 h; 293T-HIV
Experimental: as §2, with “DMSO.” for “DMSO. At 16 h posttreatment, the cells were fixed for 15 min in 4% paraformaldehyde in PBS (pH 7.4), permeabilized in 0.5% (wt/vol) saponin in PBS (pH 7.4) for 10 min, and blocked in Duolink blocking solution (Millipore-Sigma) at 37°C for 30 min.”

DDX6 and XRN1 = test: DDX6-XRN1 proximity ligation assay in compound-treated cells; assay type: cell-based, human; conditions: 10 μM; 16 h; 293T-HIV
Experimental: as §2, with “DMSO.” for “DMSO. At 16 h posttreatment, the cells were fixed for 15 min in 4% paraformaldehyde in PBS (pH 7.4), permeabilized in 0.5% (wt/vol) saponin in PBS (pH 7.4) for 10 min, and blocked in Duolink blocking solution (Millipore-Sigma) at 37°C for 30 min.”

HIV-1 NL4-3 = assay type: cell-based; conditions: MT-2 cells, 37 weeks of selection
[1] = Human immunodeficiency virus 1, NL43, MT2

T4 sequence (Q8IZH2 whole entry): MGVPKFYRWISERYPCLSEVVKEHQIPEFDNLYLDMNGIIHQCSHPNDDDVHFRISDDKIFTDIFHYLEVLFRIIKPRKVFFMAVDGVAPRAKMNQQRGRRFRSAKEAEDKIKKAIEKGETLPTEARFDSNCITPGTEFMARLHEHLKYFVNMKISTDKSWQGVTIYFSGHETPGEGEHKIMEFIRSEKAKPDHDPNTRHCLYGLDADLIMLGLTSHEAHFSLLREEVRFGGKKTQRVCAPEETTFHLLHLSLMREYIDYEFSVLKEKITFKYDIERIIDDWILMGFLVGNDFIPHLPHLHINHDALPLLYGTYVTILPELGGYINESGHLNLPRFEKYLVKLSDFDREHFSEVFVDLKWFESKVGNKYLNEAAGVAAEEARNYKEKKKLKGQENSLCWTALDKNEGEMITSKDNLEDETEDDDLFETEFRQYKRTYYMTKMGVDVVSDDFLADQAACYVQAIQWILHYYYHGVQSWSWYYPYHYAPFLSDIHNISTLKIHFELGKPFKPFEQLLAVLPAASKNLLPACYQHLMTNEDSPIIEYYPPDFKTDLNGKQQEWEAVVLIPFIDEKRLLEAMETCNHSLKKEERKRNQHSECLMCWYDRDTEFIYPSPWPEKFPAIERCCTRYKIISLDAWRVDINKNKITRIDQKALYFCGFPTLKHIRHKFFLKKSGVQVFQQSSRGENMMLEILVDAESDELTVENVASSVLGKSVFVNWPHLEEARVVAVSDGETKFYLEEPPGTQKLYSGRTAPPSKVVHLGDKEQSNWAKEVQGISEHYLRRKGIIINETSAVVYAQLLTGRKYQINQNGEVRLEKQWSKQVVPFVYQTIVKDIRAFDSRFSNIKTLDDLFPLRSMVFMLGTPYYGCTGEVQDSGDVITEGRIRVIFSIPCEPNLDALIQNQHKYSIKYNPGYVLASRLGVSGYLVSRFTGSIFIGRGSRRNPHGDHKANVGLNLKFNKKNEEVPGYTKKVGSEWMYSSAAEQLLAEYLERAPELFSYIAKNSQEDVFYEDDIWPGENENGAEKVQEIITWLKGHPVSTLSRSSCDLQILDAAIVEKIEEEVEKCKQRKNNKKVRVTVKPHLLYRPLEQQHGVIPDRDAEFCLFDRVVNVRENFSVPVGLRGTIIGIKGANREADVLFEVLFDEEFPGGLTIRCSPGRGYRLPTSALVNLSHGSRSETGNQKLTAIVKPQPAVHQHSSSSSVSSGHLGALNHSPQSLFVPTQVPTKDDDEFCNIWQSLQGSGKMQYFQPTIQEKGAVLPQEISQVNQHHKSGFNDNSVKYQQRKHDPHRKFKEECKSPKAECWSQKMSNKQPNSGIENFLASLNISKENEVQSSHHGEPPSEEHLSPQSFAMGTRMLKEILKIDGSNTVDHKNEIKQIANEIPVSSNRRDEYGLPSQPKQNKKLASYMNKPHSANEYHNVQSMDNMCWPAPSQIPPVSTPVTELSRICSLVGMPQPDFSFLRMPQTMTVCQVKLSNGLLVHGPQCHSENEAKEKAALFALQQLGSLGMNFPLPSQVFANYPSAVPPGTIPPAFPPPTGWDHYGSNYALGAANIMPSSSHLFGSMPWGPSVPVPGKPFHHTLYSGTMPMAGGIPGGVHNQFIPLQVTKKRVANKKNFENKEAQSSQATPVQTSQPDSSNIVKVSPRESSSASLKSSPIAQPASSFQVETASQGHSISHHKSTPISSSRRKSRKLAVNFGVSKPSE
T2 sequence (Q13283 whole entry): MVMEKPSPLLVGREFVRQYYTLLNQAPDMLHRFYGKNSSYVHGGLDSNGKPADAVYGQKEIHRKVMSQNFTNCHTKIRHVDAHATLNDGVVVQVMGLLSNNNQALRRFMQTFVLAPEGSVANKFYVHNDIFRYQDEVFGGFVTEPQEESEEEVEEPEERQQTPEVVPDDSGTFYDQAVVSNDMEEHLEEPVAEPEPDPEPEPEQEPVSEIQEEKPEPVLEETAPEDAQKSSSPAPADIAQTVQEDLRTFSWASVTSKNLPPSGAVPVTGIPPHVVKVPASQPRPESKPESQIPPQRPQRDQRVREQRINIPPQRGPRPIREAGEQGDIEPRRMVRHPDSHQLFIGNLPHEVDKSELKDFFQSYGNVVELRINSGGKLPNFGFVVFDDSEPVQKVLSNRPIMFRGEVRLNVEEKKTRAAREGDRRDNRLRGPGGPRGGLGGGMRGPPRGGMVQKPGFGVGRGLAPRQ
Experimental for MT-2 cells: as §4, §3

## COc1ccc(/C=C/C2NCCc3cc(OCc4ccccc4)c(OC)cc32)c(C)c1 (centres unmarked) [PAV-218]
MT-2 cells
  CC50 (μM): 9.7 ×/÷ 1.2 μM
HIV-1 NL4-3 RLuc; MT-2 cells
  SI (CC50/EC50): 66

## COc1ccc(/C=C/C2NCCc3cc(OCc4ccccc4)c(OC)cc32)cc1OCc1ccccc1 (centres unmarked) [PAV-220]
In vitro; CC50 (μM)
  CC50: 3.8 µM
HIV-1 NL4-3 RLuc; [1]
  EC50: 0.163 µM
HIV-1 NL4-3 RLuc; MT-2 cells
  SI (CC50/EC50): 23

## COc1cc2c(cc1OCc1ccccc1)CCNC2/C=C/c1ccccc1C (centres unmarked) [PAV-245]
In vitro; CC50 (μM)
  CC50: 3.6 µM
HIV-1 NL4-3 RLuc; [1]
  EC50: 0.755 µM
HIV-1 NL4-3 RLuc; MT-2 cells
  SI (CC50/EC50): 4.8

## COc1cc2c(cc1OCc1ccccc1)CCNC2/C=C/c1ccccc1 (centres unmarked) [PAV-492]
In vitro; CC50 (μM)
  CC50: > 10 µM
HIV-1 NL4-3 RLuc; [1]
  EC50: 1.54 µM
HIV-1 NL4-3 RLuc; MT-2 cells
  SI (CC50/EC50): > 6

## COc1ccc(/C=C/C2NCCc3cc(OCc4ccccc4)c(OC)cc32)cc1 (centres unmarked) [PAV-493]
In vitro; CC50 (μM)
  CC50: 21 µM
HIV-1 NL4-3 RLuc; MT-2 cells
  SI (CC50/EC50): 37

## COc1cc2c(cc1OCc1ccccc1)CCNC2/C=C/c1cccc(OCc2ccccc2)c1 (centres unmarked) [PAV-494]
In vitro; CC50 (μM)
  CC50: 4.1 µM
HIV-1 NL4-3 RLuc; [1]
  EC50: 0.244 µM
HIV-1 NL4-3 RLuc; MT-2 cells
  SI (CC50/EC50): 17

## N#CCC(NC(=O)CCOCCOCCNC(=O)CCCC[C@@H]1SCC2NC(=O)NC21)C(=O)NCCCCOc1ccccc1 (some centres unmarked) [PAV-543, reference compound]
DDX6; 10 μM, 293T-HIV (HIV +)
  biotin-DDX6 PLA spots/cell: 12.6
G3BP1
  PLA spots/cell (biotin-G3BP1 PLA): 1.6
ABCE1; 10 μM, 293T-HIV (HIV +)
  biotin-ABCE1 PLA spots/cell: 4.5
HIV-1 Gag; 10 μM, 293T-HIV (HIV +)
  biotin-Gag PLA spots/cell: 9.3
XRN1
  PLA spots/cell (biotin-XRN1 PLA): 3.8
In vitro; CC50
  CC50: > 100 µM
HIV-1 NL4-3 RLuc; Human immunodeficiency virus 1, NL43, T-cell, read-out: EC50MT-2
  EC50: > 100 µM
TIAR and G3BP1
  PLA spots/cell (TIAR-G3BP1 PLA): 51.5
DDX6 and XRN1
  PLA spots/cell (DDX6-XRN1 PLA): 77.4

## COc1cc(C)c(C=CC2NCCc3cc(OCc4ccccc4)c(OC)cc32)cc1OCCCCNC(=O)C(CC1(C)N=N1)NC(=O)CCOCCOCCNC(=O)CCCCC1SCC2NC(=O)NC21 (centres unmarked) [PAV-818]
DDX6; 5 μM, 293T-HIV (HIV +)
  biotin-DDX6 PLA spots/cell: 47.4
DDX6; 10 μM, 293T-HIV (HIV +)
  biotin-DDX6 PLA spots/cell: 65.1
DDX6; 10 μM, uninfected 293T (HIV −)
  biotin-DDX6 PLA spots/cell: 58.0
DDX6; 20 μM, 293T-HIV (HIV +)
  biotin-DDX6 PLA spots/cell: 82.9
DDX6; 293T-HIV
  fold more biotin-DDX6 PLA spots than in PAV-543-treated or DMSO-treated cells: ~5.1 fold
G3BP1
  PLA spots/cell (biotin-G3BP1 PLA): 6.3
G3BP1; PLA
  colocalization with the stress granule protein G3BP1: does not colocalize
ABCE1; 5 μM, 293T-HIV (HIV +)
  biotin-ABCE1 PLA spots/cell: 42.0
ABCE1; 10 μM, 293T-HIV (HIV +)
  biotin-ABCE1 PLA spots/cell: 64.2
ABCE1; 10 μM, uninfected 293T (HIV −)
  biotin-ABCE1 PLA spots/cell: 72.9
ABCE1; 20 μM, 293T-HIV (HIV +)
  biotin-ABCE1 PLA spots/cell: 104.7
ABCE1; both at 10 μM, 293T-HIV
  fold more biotin-ABCE1 PLA spots than with PAV-543: 14.3 fold
HIV-1 Gag; 5 μM, 293T-HIV (HIV +)
  biotin-Gag PLA spots/cell: 32.6
HIV-1 Gag; 10 μM, 293T-HIV (HIV +)
  biotin-Gag PLA spots/cell: 51.5
HIV-1 Gag; 10 μM, uninfected 293T (HIV −)
  biotin-Gag PLA spots/cell: 7.1
HIV-1 Gag; 20 μM, 293T-HIV (HIV +)
  biotin-Gag PLA spots/cell: 111.8
HIV-1 Gag; both at 10 μM, 293T-HIV
  fold more biotin-Gag PLA spots than with PAV-543: 5.5 fold
XRN1
  PLA spots/cell (biotin-XRN1 PLA): 5.3
XRN1; PLA
  colocalization with the P-body marker XRN1: does not colocalize
In vitro; CC50
  CC50: ~30 µM
HIV-1 NL4-3 RLuc; Human immunodeficiency virus 1, NL43, T-cell, 96 h, read-out: EC50 for inhibition of HIV-1 replication
  EC50: 0.951 µM
HIV-1 NL4-3 RLuc; MT-2 cells, from the shown dose-response curve
  selectivity index (CC50/EC50): ~32
TIAR and G3BP1
  PLA spots/cell (TIAR-G3BP1 PLA): 35.0
DDX6 and XRN1
  PLA spots/cell (DDX6-XRN1 PLA): 35.2

## Cc1c(O)cccc1C(=O)N[C@@H](CSc1ccccc1)[C@H](O)CN1C[C@H]2CCCC[C@H]2C[C@H]1C(=O)NC(C)(C)C [nelfinavir, reference compound]
HIV-1 NL4-3
  resistance level reached: compound concentration allowing virus replication, fold higher than the EC50: 16 fold
